Like-named read-outs stand apart in the source and are kept apart here. Marks after values point to notes of the source that are not given here. Ends that are not written are not given here.
Key:
Caco-2 cells = type: cell-based, human; settings: for Viable Cells (%): SD; for inhibition of Caco-2 proliferation: human, Caco-2, 72 h
Description: The human CRC cell line Caco-2 was obtained from American Type Cell Collection (ATCC, Manassas, VA, USA) and cultured in MEM medium supplemented with 20% FBS, 1% penicillin, and 1% streptomycin. Cells were maintained at 37 °C in a humidified incubator containing 5% CO2 and 95% air. The medium was changed every 24 h. All cells were assayed within 5–15 passages. Utilizing the CCK-8 kit (Biorigin, Beijing, China), the toxicity test was first performed. Caco-2 cells (100 µL) were incubated in the 96-well plate (1 × 10^5 cells/well) for 24 h, then the original medium was replaced with fresh medium containing different concentrations of QP (1–8 g/L), QPH (1–8 g/L), fraction MW < 5 kDa (1–8 g/L), fraction MW > 5 kDa (1–8 g/L), and selected peptides ranging from 0 to 2 g/L. After 24 h co-cultivation, the medium was discarded and washed with PBS 2 times, and a fresh medium with 10% CCK-8 reagent was added to each cell. Another 1 h later, the absorbance (OD value) was determined by an enzyme-labeling instrument at a wavelength of 450 nm. Experiments were performed in triplicate with at least three replicates per concentration, and results were expressed as percentage of negative control (non-treated Caco-2 cells).
For the proliferation experiments, Caco-2 cells were seeded into 96-well plates at a density of 2.5 × 10^4 per well for 24 h, the incubation was continued for 72 h. After that, the subsequent washing and CCK-8 reaction process were the same as performed in the toxicity test. Finally, the absorbance was also detected at 450 nm. Analyses were performed in triplicate with at least three replicates per concentration, and results were also shown as the percentage of non-treated Caco-2 cells.

HDAC1 = biological target: T1, HDAC1 (Homo sapiens, UniProt Q13547); experiment: HDAC1 inhibitory activity assay (inhibitor screening kit, fluorescence); type: biochemical; settings: for HDAC1 IC50 attained or not, in words: peptide 0.05–2 g/L tested; for IC50: peptide 0.05–2 g/L, 30 min at 37 °C, fluorescence, triplicate
T1 construct: purchased Abnova
Description: HDAC1 activity was determined using the HDAC1 inhibitor screening assay kit (Abnova, Taipei, Taiwan). The assay was performed according to the manufacture instruction manual. Briefly, the sample wells were added 140 µL assay buffer, 10 µL diluted HDAC1, and 10 µL peptide samples (0.05–2 g/L). The trichostatin A was set as the positive control, and the sample buffer was set as the negative control. We initiated the reactions by adding 10 µL of HDAC substrate to all the wells being used. Cover the plate with the plate cover and incubate on a shaker for 30 min at 37 °C. Remove the plate cover and add 40 µL of developer. Cover the plate with the plate cover and incubate for 15 min at room temperature. Remove the plate cover and read the fluorescence using an excitation wavelength of 340–360 nm and an emission wavelength of 440–465 nm. IC50 values were calculated using GraphPad Prism 8 software. Analyses were performed in triplicate with at least three replicates per concentration.

colon cancer cells = settings: read-out: 50% inhibition; cited from earlier work
Text: Histone acetylation and deacetylation are important for the regulation of gene expression. The family of HDACs includes 18 members, and class I HDACs (HDAC 1, 2, 3, and 8) is considered to be the most important ones. […] For example, HDAC1 expression was increased in colorectal cancer and gastric cancer. In contrast, HDAC1 knockdown causes cell cycle arrest, reduces cancer cell viability, and induces cancer cell apoptosis. Moreover, pharmacological inhibitors ...

[1] = Caco-2, CCK-8, peptide 1 g/L, % of non-treated cells, mean ± SD
[2] = Caco-2, CCK-8, peptide 1 × 10^−1 g/L, % of non-treated cells, mean ± SD
[3] = Caco-2, CCK-8, peptide 2 g/L, % of non-treated cells, mean ± SD
[4] = Caco-2, CCK-8, peptide 5 × 10^−1 g/L, % of non-treated cells, mean ± SD

T1 sequence (Q13547 whole entry): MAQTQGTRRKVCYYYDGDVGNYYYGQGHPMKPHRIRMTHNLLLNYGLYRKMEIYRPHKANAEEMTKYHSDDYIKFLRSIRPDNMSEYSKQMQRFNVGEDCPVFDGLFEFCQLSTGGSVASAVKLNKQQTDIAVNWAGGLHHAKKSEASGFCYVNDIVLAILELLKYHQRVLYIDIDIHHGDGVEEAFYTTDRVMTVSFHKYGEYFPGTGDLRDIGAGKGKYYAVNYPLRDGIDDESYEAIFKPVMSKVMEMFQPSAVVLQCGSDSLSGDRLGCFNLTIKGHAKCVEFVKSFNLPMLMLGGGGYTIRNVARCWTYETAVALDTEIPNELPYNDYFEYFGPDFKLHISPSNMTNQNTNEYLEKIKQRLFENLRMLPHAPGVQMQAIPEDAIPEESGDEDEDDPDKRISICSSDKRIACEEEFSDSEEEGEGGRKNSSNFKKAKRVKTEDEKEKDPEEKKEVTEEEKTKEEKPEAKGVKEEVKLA

Substance | HDAC1 IC50 attained or not, in words (HDAC1) | IC50 (HDAC1) | Viable Cells (%) (Caco-2 cells; [1]) | Viable Cells (%) (Caco-2 cells; [2]) | Viable Cells (%) (Caco-2 cells; [3]) | Viable Cells (%) (Caco-2 cells; [4]) | Viable Cells (%) (Caco-2 cells; 24 h, 0.1 g/L) | Viable Cells (%) (Caco-2 cells; 24 h, 0.5 g/L) | Viable Cells (%) (Caco-2 cells; 24 h, 1 g/L) | Viable Cells (%) (Caco-2 cells; 24 h, 2 g/L) | inhibition of Caco-2 proliferation (Caco-2 cells; 1 g/L) | IC50 (colon cancer cells)
HGSLGFLPR [quinoa peptide identified from QPH fraction < 5 kDa] |  |  | 96.81 ± 0.88 ^b % | 97.35 ± 1.03 ^c % | 95.80 ± 0.62 ^b % | 96.91% |  |  |  |  |  | 
NSLSLPNFHPFPR [quinoa peptide identified from QPH fraction < 5 kDa] |  |  | 86.55 ± 0.58 ^e % | 100.79 ± 0.52 ^a % | 83.56 ± 0.71 ^d % | 92.78 ± 2.20 ^c % |  |  |  |  |  | 
GLESPNYPWPH [quinoa peptide identified from QPH fraction < 5 kDa] |  |  | 97.40 ± 0.73 ^b % | 99.75 ± 1.06 ^a % | 97.70% | 99.32 ± 1.05 ^a % |  |  |  |  |  | 
NSWGPNWGDHG [quinoa peptide identified from QPH fraction < 5 kDa] |  |  | 99.58 ± 1.08 ^a % | 98.87% | 97.92 ± 1.41 ^a % | 98.60 ± 2.28 ^a % |  |  |  |  |  | 
lunasin |  |  |  |  |  |  |  |  |  |  |  | 61.7 µM
SVENWFPLPR [quinoa peptide identified from QPH fraction < 5 kDa] |  |  | 92.14 ± 0.69 ^c % | 99.43% | 91.04 ± 1.53 ^c % | 95.50 ± 3.60 ^b % |  |  |  |  |  | 
FGGGTLGHPW [quinoa peptide identified from QPH fraction < 5 kDa] |  |  | 90.41 ± 0.69 ^d % | 97.09 ± 0.74 ^c % | 89.72 ± 0.60 ^c % | 91.65 ± 0.43 ^c % |  |  |  |  |  | 

Now from value to substance, other results behind:

HDAC1 IC50 attained or not, in words (HDAC1) | IC50 (HDAC1) | Substance | Viable Cells (%) (Caco-2 cells; [1]) | Viable Cells (%) (Caco-2 cells; [2]) | Viable Cells (%) (Caco-2 cells; [3]) | Viable Cells (%) (Caco-2 cells; [4]) | Viable Cells (%) (Caco-2 cells; 24 h, 0.1 g/L) | Viable Cells (%) (Caco-2 cells; 24 h, 0.5 g/L) | Viable Cells (%) (Caco-2 cells; 24 h, 1 g/L) | Viable Cells (%) (Caco-2 cells; 24 h, 2 g/L) | inhibition of Caco-2 proliferation (Caco-2 cells; 1 g/L) | IC50 (colon cancer cells)
can reach to IC50 value |  | SLPNFHPFPR [quinoa peptide identified from QPH fraction < 5 kDa] | 78.51 ± 0.26 ^g % | 97.79% | 78.00 ± 0.80 ^f % | 87.21 ± 0.32 ^d % |  |  |  |  |  | 
can reach to IC50 value | 1370 µM | NWFPLPR [NWFPLPR] |  |  |  |  | 92.86 ± 1.10 ^d % | 79.99 ± 0.86 ^e % | 64.02 ± 1.39 ^j % | 63.18 ± 0.83 ^i % | more than 30% | 
can reach to IC50 value | 1650 µM | HYNPYFPGGA [HYNPYFPGGA] |  |  |  |  | 93.69 ± 0.68 ^d % | 82.34 ± 1.36 ^e % | 67.44 ± 1.26 ^i % | 67.10 ± 1.87 ^h % | more than 30% | 
can reach to IC50 value |  | NIFRPF [quinoa peptide identified from QPH fraction < 5 kDa] | 70.29 ± 0.56 ^h % | 100.10 ± 1.03 ^a % | 70.55 ± 2.01 ^g % | 85.11 ± 0.66 ^d % |  |  |  |  |  | 
can reach to IC50 value |  | INNIFRPF [quinoa peptide identified from QPH fraction < 5 kDa] | 80.44 ± 0.68 ^f % | 100.40 ± 1.29 ^a % | 80.61 ± 0.41 ^e % | 92.05 ± 1.07 ^c % |  |  |  |  |  | 
can reach to IC50 value |  | PNFHPFPR [PNFHPFPR] |  |  |  |  | 90.46 ± 1.43 ^e % | 77.26 ± 1.65 ^f % | 65.32 ± 1.45 ^j % | 61.67 ± 1.64 ^i % | more than 30% | 
can reach to IC50 value | 1090 µM | FHPFPR [FHPFPR] |  |  |  |  | 90.04 ± 1.26 ^e % | 75.46 ± 0.86 ^f % | 51.41 ± 0.80 ^k % | 50.82 ± 0.76 ^j % | more than 30% | 

From paper PMC8774364, “Anti-Colon Cancer Activity of Novel Peptides Isolated from In Vitro Digestion of Quinoa Protein in Caco-2 Cells” (Foods, 2022)
